Read-outs that look alike come from different tables or passages of the source.

The values that follow come from patent EP0931078B1, “NOVEL TRICYCLIC PIPERIDINYL COMPOUNDS USEFUL AS INHIBITORS OF FARNESYL-PROTEIN TRANSFERASE” (SCHERING CORPORATION, priority 1996, dated 1998).

In this experiment the target is T1, partially purified rat brain famesyl protein transferase (FPT) (Rattus norvegicus, UniProt Q02293+Q04631).
T1 construct: partially purified rat brain famesyl protein transferase (FPT); from tissue; host or cells: rat brain
T1 sequence (Q02293 whole entry, one chain of several): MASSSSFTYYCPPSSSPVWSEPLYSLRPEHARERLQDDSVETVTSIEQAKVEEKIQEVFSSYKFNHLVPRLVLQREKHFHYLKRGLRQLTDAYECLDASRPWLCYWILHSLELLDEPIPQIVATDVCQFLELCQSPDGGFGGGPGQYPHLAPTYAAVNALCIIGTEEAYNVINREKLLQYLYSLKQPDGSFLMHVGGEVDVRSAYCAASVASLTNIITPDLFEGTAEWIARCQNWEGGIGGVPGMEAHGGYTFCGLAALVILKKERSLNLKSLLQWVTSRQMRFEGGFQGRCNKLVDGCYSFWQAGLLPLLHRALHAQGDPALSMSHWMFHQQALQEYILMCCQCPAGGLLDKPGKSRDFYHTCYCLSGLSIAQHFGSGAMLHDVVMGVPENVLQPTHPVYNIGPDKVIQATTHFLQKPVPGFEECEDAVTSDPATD
Description: In vitro enzyme assay: inhibition of Ras-CVLS farnesylation by farnesyl protein transferase (FPT). The format is biochemical. Here is the method: • 1. In vitro enzyme assays: FPT IC50 (inhibition of famesyl protein transferase, in vitro enzyme assay) are determined by the methods disclosed in […] or WO 95/10516. […] Cell-based assay. COS IC50 values refer to the COS cells activity inhibition of Ras processing, are determined by the methods disclosed in […] or WO 95/10516.

[1] abbreviates: unit printed as uM (Examples 49-54).

Usually inhibition stands for how much of the control response was suppressed. On to `O=C(NCc1cccnc1)C1CCCN(C2c3ncc(Br)cc3CCc3cc(Cl)cc(Br)c32)C1` (single isomer, unassigned) [Example 17 Isomer B, 1-(3,10-Dibromo-8-chloro-6,11-dihydro-5H-benzo[5,6]cyclohepta[1,2-b]pyridin-11-yl)-N-(3-pyridinylmethyl)-3-piperidinecarboxamide], for which the inhibition at 0.1 µM (read-out: FPT Inhibition) was 3.4%.

What is called IC50 is the concentration needed to halve the response being measured. The low end stands for higher potency, the high end for lower potency. As for `O=C(NCc1cccnc1)C1CCN(C2c3ccc(Cl)cc3CCc3cc(Br)cnc32)CC1` (stereo not drawn) [Example 4, 1-(3-Bromo-8-chloro-6,11-dihydro-5H-benzo[5,6]cyclohepta[1,2-b]pyridin-11-yl)-N-(3-pyridinylmethyl)-4-piperidinecarboxamide], the half-maximal inhibitory concentration (IC50) came to 1.3 µM.

Turning to `O=C(NCc1cccnc1)[C@H]1CCCCN1C1c2ccc(Cl)cc2CCc2cc(Br)cnc21` (single isomer, unassigned) [Isomer D2 amide], under “@ 0.38 µM”, the “FPT Inhibition” value was “FPT Inhibition = 0% @ 0.38 µM”.

`O=C(NC1CCNCC1)C1CCN(C2c3ccc(Cl)cc3CCc3cc(Br)cnc32)CC1` (stereo not drawn) [Example 7 Step B, 1-(3-Bromo-8-chloro-6,11-dihydro-5H-benzo[5,6]cyclohepta[1,2-b]pyridin-11-yl)-N-(4-piperidinyl)-4-piperidinecarboxamide]: the inhibition at 0.39 µM (read-out: FPT Inhibition) turned out to be 8.75%.

For `O=C(NCc1ccccn1)C1CCN(C2c3ccc(Cl)cc3CCc3cc(Br)cnc32)CC1` (stereo not drawn) [Example 5, 1-(3-Bromo-8-chloro-6,11-dihydro-5H-benzo[5,6]cyclohepta[1,2-b]pyridin-11-yl)-N-(2-pyridinyimethyl)-4-piperidinecarboxamide], the IC50 came to 1.8 µM.

The compound `O=C(NCc1cccnc1)C1CCCCN1C1c2ccc(Cl)cc2CCc2cc(Br)cnc21` (single isomer, unassigned) [Isomer C1 amide] came in with an IC50 of 0.3 µM.

Compound `O=C(NCCCN1CCCC1=O)C1CCCN(C2c3ncc(Br)cc3CCc3cc(Cl)cc(Br)c32)C1` (stereo not drawn) [Example 54, 1-(3,10-Dibromo-8-chloro-6,11-dihydro-5H-benzo[5,6]cyclohepta[1,2-b]pyridin-11-yl)-N-[3-(2-oxo-1-pyrrolidinyl)propyl]-3-piperidinecarboxamide] showed an IC50 under setting [1] of 0.1 µM.

As to `O=C(Nc1ccncc1)C1CCN(C2c3ccc(Cl)cc3CCc3cc(Br)cnc32)CC1` (stereo not drawn) [Example 2, 1-(3-Bromo-8-chloro-6,11-dihydro-5H-benzo[5,6]cyclohepta[1,2-b]pyridin-11-yl)-N-(4-pyridinyl)-4-piperidinecarboxamide], where the note is “read-out: FPT Inhibition”, the inhibition at 0.39 µM amounted to 0%.

For `CN(C)CC(=O)N1CCC(CNC(=O)[C@@H]2CCCN(C3c4ncc(Br)cc4CCc4cc(Cl)cc(Br)c43)C2)CC1` (stereo partly drawn) [Example 53, 1-(3,10-Dibromo-8-chloro-6,11-dihydro-5H-benzo[5,6]cyclohepta[1,2-b]pyridin-11-yl)-N-[[1-[(dimethylamino)acetyl]-4-piperidinyl]methyl]-3-piperidinecarboxamide], the IC50 under setting [1] was found to be 0.11 µM.

Compound `O=C(Nc1cccnc1)C1CCCN(C2c3ccc(Cl)cc3CCc3cc(Br)cnc32)C1` (stereo not drawn) [Example 11, 1-(3-bromo-8-chloro-6,11-dihydro-5H-benzo[5,6]cyclohepta [1,2-b]pyridin-11-yl)-N-(3-pyridinyl)-3-piperidinecarboxamide] came in with a 50% inhibitory concentration (IC50) of 0.065 µM.

`O=C(Nc1ccncc1)C1CCN(C2c3ccc(Cl)cc3CCc3cccnc32)CC1` (stereo not drawn) [Example 1, 1-[8-Chloro-6,11-dihydro-5H-benzo[5,6]cyclohepta[1,2-b]pyridin-11-yl]-N-(4-pyridinyl)-4-piperidinecarboxamide] returned a half-inhibitory concentration (IC50) of 9.24 µM.

The compound `O=C(NCc1cccnc1)C1CCCCN1C1c2ccc(Cl)cc2CCc2cc(Br)cnc21` (single isomer, unassigned) [Isomer D1 amide] registered an IC50 of 0.16 µM.
